Measurements taken from publication PMC10721329, “Quisinostat is a brain-penetrant radiosensitizer in glioblastoma” (JCI Insight, 2023).
“And” between values parts separate entries of the source, which are not always exact repeats. Equal entries are not always repeated.

Columns and labels:
BT145 cells [1] = experiment: γ-H2AX foci immunofluorescence; type: cell-based, human; details: BT 145, 75 nM QST, single nuclei
Experimental: (§1) To test the DNA-damaging effects of QST in GBM cells, we treated 2 independent GSC lines with QST for 72 hours at the IC50 and analyzed changes in the levels of phosphorylated histone H2AX (γ-H2AX), a marker for DNA double-strand breaks (DSBs) ([27]). […]
(§2) anti-GAPDH (1:1000, Cell Signaling Technologies, 97166), rabbit anti-cleaved poly (ADP-ribose) polymerase Asp 214 (1:1000, Cell Signaling, 9541), rabbit anti-BDNF (1:1000, Abcam, ab108319) and mouse anti- β-actin (1:1000, Bio-Rad, MCA5775GA). Membranes were probed with fluorophore-conjugated anti-mouse or anti-rabbit secondary antibodies (1:10,000; ThermoFisher Scientific). Western blots were developed using the LI-COR Odyssey CLx imaging system (LI-COR) and quantitated using the Image Studio Lite software. All Western blots are representative images from a minimum of 3 biological replicates.
(§3) Cells were grown as adherent cultures on laminin -coated glass coverslips (Thermo Fisher Scientific) in GSC media. Twenty-four hours after plating, the cells were treated with QST or DMSO diluted in GSC media. Seventy-two hours after treatment, cells were fixed with 4% paraformaldehyde for 13 minutes at room temperature. Cells were washed with phosphate-buffered saline (PBS) and subsequently permeabilized and blocked with 5% normal goat serum (Sigma Aldrich) and 0.2% Triton X -100 in PBS (blocking solution) for 30 minutes at room temperature. […]
(§4) SuperFrost Plus microscope slides using Fluoroshield Mounting Medium containing DAPI (Abcam). […] The fraction of Ki67- and Cleaved Caspase 3– positive cells were counted from 5 independent images from each condition. The mean and standard deviation were calculated from 3 biological replicates for all control and QST-treated […]
(§5) For cell cycle analysis following short -term DMSO or QST treatment in GSC cultures, approximately 1 million cells were harvested, washed in cold 1× PBS once, and fixed with 3–4 mL of ice cold 70% ethanol, added dropwise while vortexing. […] Data from all the samples were obtained using a Fortessa flow cytometer (BD Biosciences) and analyzed using the FlowJo software (TreeStar). […]

GB126 cells [2] = experiment: γ-H2AX foci immunofluorescence; type: cell-based, human; details: 86 nM QST, value per individual nucleus, image series of replicate experiments
Experimental: as §1, §2, §3, §4, §5

BT145 cells [3] = experiment: Annexin V / ViaDye Red flow cytometry (apoptosis); type: cell-based, human; details: 75 nM QST
Excerpt: (§6) For apoptosis analysis, the Dead Cell Apoptosis Kit with Annexin V FITC and Propidium Iodide for Flow Cytometry (Thermo Fisher Scientific, V13242) was followed using the manufacturer instructions, with the exception that we employed ViaDye Red Fixable Viability Dye Kit (Cytek, SKU R7-60008) instead of propidium iodide to label necrotic cells. Samples were run on the AURORA 3L 24 color spectrum cytometers (Cytek), unmixed by SpectroFlo application, and analyzed with FlowJo 10.8.1 software (Beckton Dickinson). Recommended negative controls for flow cytometry include (1) no Annexin V FITC and no ViaDye Red, (2) Annexin V FITC alone, and (3) ViaDye Red alone. The following gating strategy was used: debris population was excluded as the subset of cells with low forward scatter in the forward scatter area versus side scatter area plot. After excluding the debris, cells were gated on the Annexin versus ViaDye Red log plot with the classification as live (Annexin V negative, ViaDye Red negative), early apoptotic (Annexin V positive, ViaDye Red negative), late apoptotic (Annexin V positive, ViaDye Red positive), or necrotic (Annexin V negative, ViaDye Red positive). The frequency of the different cell subsets was reported as frequency on the total cell population, excluding debris. […]

GB126 cells [4] = experiment: Annexin V / ViaDye Red flow cytometry (apoptosis); type: cell-based, human; details: 86 nM QST
Excerpt: as §6

HDAC2 = system: HDAC2; parameters: method as in PMID 32608981; details: cited from earlier work
[5] = representative plot, quadrant assigned by inference

SMILES: Cn1cc(CNCC2CCN(c3ncc(C(=O)NO)cn3)CC2)c2ccccc21 [QST, quisinostat]
- Number of foci/ Nucleus (ƴH2AX) (BT145 cells [1]): 12
- ƴH2AX Number of foci/ Nucleus (BT145 cells [1]; replicates n=1 to n=3): 12
- Number of foci/ Nucleus (γH2AX) (GB126 cells [2]): 12
- Apoptotic, Annexin+ ViaDye - (%) (BT145 cells [3]; replicates): 60% and 53.4% and 59.8%
- Dead, Annexin+ ViaDye + (%) (BT145 cells [3]; replicates): 5.66% and 6.66% and 4.49%
- ViaDyeRed / Annexin V-FITC dot plot quadrant, live (Annexin-, ViaDye-) (BT145 cells [3]; [5]): 39.3
- ViaDyeRed / Annexin V-FITC dot plot quadrant, necrotic (Annexin-, ViaDye+) (BT145 cells [3]; [5]): 0.65
- Apoptotic, Annexin+ ViaDye - (%) (GB126 cells [4]; replicates): 9.54% and 12.5% and 8.59%
- Dead, Annexin+ ViaDye + (%) (GB126 cells [4]; replicates): 12.7% and 14.5% and 9.91%
- ViaDyeRed / Annexin V-FITC dot plot quadrant, live (Annexin-, ViaDye-) (GB126 cells [4]; [5]): 71.9
- ViaDyeRed / Annexin V-FITC dot plot quadrant, necrotic (Annexin-, ViaDye+) (GB126 cells [4]; [5]): 5.85
